Results: patent publication US20090239841A1, “Diaryl Ureas as CB1 Antagonists” (priority 2004, published 2009)

Target: T1, hCB1 (Homo sapiens, UniProt P21554)
T1 construct: made in house; host or cells: Sf9 insect cells (baculovirus), P2 membranes
Experiment: Agonist-induced GTP binding (GTPγ35S) assay at CB1, Example 8
Format: biochemical
Conditions: Table II; IC50 at CB1, GTP binding with 1 nM CP55,940; read-out: IC50
Description: As noted above, compounds provided herein are CB1 antagonists. Certain such compounds are non-competitive CB1 antagonists. In addition, or alternatively, certain compounds provided herein display CB1 specificity. CB1 antagonist activity may be confirmed using an agonist-induced GTP binding assay, such as the assay described in Example 8. Such assays employ a CB1-containing cell membrane preparation (e.g., a preparation of membranes of insect cells that recombinantly express CB1) to determine the effect of a test compound on CB1 agonist-induced GTP binding to CB1. Briefly, a first cell membrane preparation comprising CB1 is contacted with: (i) labeled GTP; (ii) a CB1 agonist; and (iii) a test compound to yield a test membrane preparation. Simultaneously, or in either order, a second cell membrane preparation comprising CB1 is contacted with: (i) labeled GTP; and (ii) a CB1 agonist to yield a control membrane preparation. The labeled GTP is preferably GTPγ^35S; a representative CB1 agonist is CP55,940. Such contact is performed under conditions that are suitable for GTP binding to CB1, such as the conditions described in Example 8. The concentrations of labeled GTP and CB1 agonist used are generally concentrations that are sufficient to result in a detectable increase in the amount of labeled GTP bound to the membrane preparation in the presence of CB1 agonist. Such concentrations may be determined by routine experimentation; representative suitable concentrations are provided in Example 8. Generally, a range of test compound concentrations is used (e.g., ranging from 10^−10M to 10^−5M).
After sufficient contact (e.g., incubation) to allow GTP binding to the membrane preparations, a signal that corresponds to (represents) the amount of bound, labeled GTP is detected (typically, unbound labeled GTP is first removed via a washing step). In other words, simultaneously or in either order: (i) a test signal that represents an amount of bound, labeled GTP in the test membrane preparation is detected; and (ii) a control signal that represents an amount of bound, labeled GTP in the control membrane preparation is detected. The nature of the signal detected is determined by the type of label used. For example, if the GTP is radioactively labeled, the signal detected is radioactive decay (e.g., via liquid scintillation spectrometry). The CB1 antagonist activity of the test compound is then determined by comparing the test signal with the control signal.
This assay can also be used to detect partial agonism mediated by antagonist compounds. A compound being analyzed in this assay is referred to herein as a “test compound.” Agonist-stimulated GTP binding activity is measured as follows: Four independent baculoviral stocks (one directing the expression of hCB1 and three directing the expression of each of the three subunits of a heterotrimeric G-protein) are used to infect a culture of Sf9 cells as described in Example 5.
Agonist-stimulated GTP binding on purified membranes (as described in Example 6) is initially assessed using the cannabinoid agonist CP55,940 to ascertain that the receptor/G-protein-alpha-beta-gamma combination(s) yield a functional response as measured by GTP binding.
P2 membranes are resuspended by Dounce homogenization (tight pestle) in GTP binding assay buffer (50 mM Tris pH 7.4, 120 mM NaCl, 5 mM MgCl2, 2 mM EGTA, 0.1% BSA, 0.1 mM bacitracin, 10 KIU/mL aprotinin, 5 μM GDP) and added to reaction tubes at a concentration of 10 μg protein/reaction tube. After adding increasing doses of the agonist CP55,940 at concentrations ranging from 10^−12 M to 10^−6 M, reactions are initiated by the addition of […] GTPγ^35S. In competition experiments, non-radiolabeled test compounds are added to separate assays at concentrations ranging from 10^−10 M to 10^−5 M along with 1 nM CP55,940 to yield a final volume of 0.25 mL. […]

T1 sequence (P21554 whole entry): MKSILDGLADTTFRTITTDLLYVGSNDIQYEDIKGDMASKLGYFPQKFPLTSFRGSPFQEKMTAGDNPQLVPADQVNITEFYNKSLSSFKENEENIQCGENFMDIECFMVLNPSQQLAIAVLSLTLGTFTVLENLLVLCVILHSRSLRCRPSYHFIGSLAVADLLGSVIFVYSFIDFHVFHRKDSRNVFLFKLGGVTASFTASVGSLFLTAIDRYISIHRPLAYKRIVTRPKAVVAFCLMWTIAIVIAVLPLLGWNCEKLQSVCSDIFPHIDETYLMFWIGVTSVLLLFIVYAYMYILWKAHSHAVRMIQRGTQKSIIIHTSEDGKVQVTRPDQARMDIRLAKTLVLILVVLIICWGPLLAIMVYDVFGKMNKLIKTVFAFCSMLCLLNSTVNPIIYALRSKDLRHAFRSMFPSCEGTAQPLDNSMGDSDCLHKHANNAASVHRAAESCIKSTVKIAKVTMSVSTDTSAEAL

Row | Structure (SMILES) | IC50 [µM]
1 | O=C(Nc1ccc(OC(F)(F)F)cc1)Nc1cccc(OCCO)c1 [Compound 101, N-[3-(2-hydroxyethoxy)phenyl]-N′-[4-(trifluoromethoxy)phenyl]urea] | < 2
2 | O=C(Nc1ccc(OC(F)F)cc1)Nc1ccc(N2CCCCC2)cc1 [Compound 105, N-[4-(difluoromethoxy)phenyl]-N′-(4-piperidin-1-ylphenyl)urea] | < 2
3 | O=C(Nc1ccc(OC(F)F)cc1)Nc1cc(C2CC2)n[nH]1 [Compound 106, N-(3-cyclopropyl-1H-pyrazol-5-yl)-N′-[4-(difluoromethoxy)phenyl]urea] | < 2
4 | O=C(Nc1ccc(OC(F)F)cc1)Nc1cccc(Oc2ncccn2)c1 [Compound 108, N-[4-(difluoromethoxy)phenyl]-N′-[3-(pyrimidin-2-yloxy)phenyl]urea] | < 2
5 | CS(=O)(=O)N1CCc2cc(NC(=O)Nc3ccc(OC(F)F)cc3)ccc21 [Compound 109, N-[4-(difluoromethoxy)phenyl]-N′-[1-(methylsu1fonyl)-2,3-dihydro-1H-indol-5-yl]urea] | < 2
6 | O=C(Nc1ccc(OC(F)F)cc1)Nc1ccc(S(=O)(=O)N2CCCCC2)cc1 [Compound 110, N-[4-(difluoromethoxy)phenyl]-N′-[4-(piperidin-1-ylsulfonyl)phenyl]urea] | < 2
7 | O=C(Nc1ccc(OC(F)F)cc1)Nc1ccc(S(=O)(=O)N2CCCC2)cc1 [Compound 111, N-[4-(difluoromethoxy)phenyl]-N′-[4-(pyrrolidin-1-ylsulfonyl)phenyl]urea] | < 2
8 | O=C(Nc1ccc(OC(F)F)cc1)Nc1ccc(Br)nc1 [Compound 114, N-(6-bromopyridin-3-yl)-N′-[4-(difluoromethoxy)phenyl]urea] | < 2
9 | Cc1noc(C)c1-c1cccc(NC(=O)Nc2ccc(OC(F)F)cc2)c1 [Compound 115, N-[4-(difluoromethoxy)phenyl]-N′-[3-(3,5-dimethylisoxazol-4-yl)phenyl]urea] | < 2
10 | Cc1n[nH]c(C)c1-c1cccc(NC(=O)Nc2ccc(OC(F)F)cc2)c1 [Compound 117, N-[4-(difluoromethoxy)phenyl]-N′-[3-(3,5-dimethyl-1H-pyrazol-4-yl)phenyl]urea] | < 2
11 | COc1nc(-c2cccc(NC(=O)Nc3ccc(OC(F)F)cc3)c2)ncc1C(F)(F)F [Compound 118, N-[4-(difluoromethoxy)phenyl]-N′-{3-[4-methoxy-5-(trifluoromethyl)pyrimidin-2-yl]phenyl}urea] | < 2
12 | Cc1cc(-c2cccc(NC(=O)Nc3ccc(OC(F)F)cc3)c2)cc(C)n1 [Compound 120, N-[4-(difluoromethoxy)phenyl]-N′-[3-(2,6-dimethylpyridin-4-yl)phenyl]urea] | < 2
13 | COc1ccc(C(F)(F)F)c(-c2cccc(NC(=O)Nc3ccc(OC(F)F)cc3)c2)n1 [Compound 121, N-[4-(difluoromethoxy)phenyl]-N′-{3-[6-methoxy-3-(trifluoromethyl)pyridin-2-yl]phenyl}urea] | < 2
14 | CCC(CC)Oc1ccc(-c2cccc(NC(=O)Nc3ccc(OC(F)F)cc3)c2)nc1NC [Compound 122, N-[4-(difluoromethoxy)phenyl]-N′-{3-[5-(1-ethylpropoxy)-6-(methylamino)pyridin-2-yl]phenyl}urea] | < 2
15 | CCc1ccc(NC(=O)Nc2cnc3ccccc3c2)cc1 [Compound 125, N-(4-ethylphenyl)-N′-quinolin-3-ylurea] | < 2
16 | O=C(Nc1ccc(OC(F)F)cc1)Nc1cnc2ccccc2c1 [Compound 126, N-[4-(difluoromethoxy)phenyl]-N′-quinolin-3-ylurea] | < 2
17 | CCOc1ccc(NC(=O)Nc2ccc(OC(F)F)cc2)cc1 [Compound 131, N-[4-(difluoromethoxy)phenyl]-N′-(4-ethoxyphenyl)urea] | < 2
18 | COC(=O)c1ccc(NC(=O)Nc2ccc(OC(F)F)cc2)cc1 [Compound 132, methyl 4-[({[4-(difluoromethoxy)phenyl]amino}carbonyl)amino]benzoate] | < 2
19 | O=C(Nc1ccc(OC(F)F)cc1)Nc1ccc2c(c1)OC(=O)C2 [Compound 135, N-[4-(difluoromethoxy)phenyl]-N′-(2-oxo-2,3-dihydro-1-benzofuran-6-yl)urea] | < 2
20 | Nc1ncc(Br)cc1NC(=O)Nc1ccc(OC(F)F)cc1 [Compound 136, N-(2-amino-5-bromopyridin-3-yl)-N′-[4-(difluoromethoxy)phenyl]urea] | < 2

Next, values leading:

Row | IC50 [µM] | Structure (SMILES)
21 | < 2 | O=C(Nc1ccc(COc2ccccc2)cc1)Nc1ccc(OC(F)F)cc1 [Compound 102, N-[4-(dif1uoromethoxy)phenyl]-N′-[4-(phenoxymethyl)phenyl]urea]
22 | < 2 | O=C(Nc1ccc(OC(F)F)cc1)Nc1cccc(OC(F)F)c1 [Compound 103, N-[3-(difluoromethoxy)phenyl]-N′-[4-(difluoromethoxy)phenyl]urea]
23 | < 2 | O=C(Nc1ccc(OC(F)F)cc1)Nc1ccc(N2CCCC2)cc1 [Compound 104, N-[4-(difluoromethoxy)phenyl]-N′-(4-pyrrolidin-1-ylphenyl)urea]
24 | < 2 | O=C(Nc1ccc(OC(F)F)cc1)Nc1cc(-c2ccccc2)n[nH]1 [Compound 107, N-[4-(difluoromethoxy)phenyl]-N′-(3-phenyl-1H-pyrazol-5-yl)urea]
25 | < 2 | O=C(Nc1cccc(OC(F)F)c1)Nc1cccc(OC(F)F)c1 [Compound 112, N,N′-bis[3-(difluoromethoxy)phenyl]urea]
26 | < 2 | COc1ccc(NC(=O)Nc2ccc(OC(F)F)cc2)cn1 [Compound 113, N-[4-(difluoromethoxy)phenyl]-N′-(6-methoxypyridin-3-yl)urea]
27 | < 2 | Cc1n[nH]cc1-c1cccc(NC(=O)Nc2ccc(OC(F)F)cc2)c1 [Compound 116, N-[4-(difluoromethoxy)phenyl]-N′-[3-(3-methyl-1H-pyrazol-4-yl)phenyl]urea]
28 | < 2 | COc1ncc(C(F)(F)F)c(-c2cccc(NC(=O)Nc3ccc(OC(F)F)cc3)c2)n1 [Compound 119, N-[4-(difluoromethoxy)phenyl]-N′-{3-[2-methoxy-5-(trifluoromethyl)pyrimidin-4-yl]phenyl}urea]
29 | < 2 | COc1ccc(-c2cccc(NC(=O)Nc3ccc(OC(F)F)cc3)c2)nc1Cl [Compound 123, N-[3-(6-chloro-5-methoxypyridin-2-yl)phenyl]-N′-[4-(difluoromethoxy)phenyl]urea]
30 | < 2 | CCc1cncc(-c2cccc(NC(=O)Nc3ccc(OC(F)F)cc3)c2)n1 [Compound 124, N-[4-(difluoromethoxy)phenyl]-N′-[3-(6-ethylpyrazin-2-yl)phenyl]urea]
31 | < 2 | CCc1ccc(NC(=O)Nc2ccc3ncccc3c2)cc1 [Compound 128, N-(4-ethylphenyl)-N′-quinolin-6-ylurea]
32 | < 2 | O=C(Nc1ccc(OC(F)F)cc1)Nc1ccc2ncccc2c1 [Compound 129, N-[4-(difluoromethoxy)phenyl]-N′-quinolin-6-ylurea]
33 | < 2 | Cc1nc2ccc(NC(=O)Nc3ccc(OC(F)F)cc3)cc2o1 [Compound 130, N-[4-(difluoromethoxy)phenyl]-N′-(2-methyl-1,3-benzoxazol-6-yl)urea]
34 | < 2 | O=C(Nc1ccc(OC(F)F)cc1)Nc1ccc2[nH]ncc2c1 [Compound 133]
35 | < 2 | COC(=O)c1ccc(NC(=O)Nc2ccc(OC(F)F)cc2)cc1OC [Compound 134, methyl 4-[({[4-(difluoromethoxy)phenyl]amino}carbonyl)amino]-2-methoxybenzoate]
36 | < 2 | O=C(Nc1ccc(OC(F)F)cc1)Nc1cc(OC(F)F)ncn1 [Compound 137, N-[4-(difluoromethoxy)phenyl]-N′-[6-(difluoromethoxy)pyrimidin-4-yl]urea]
